Laboratory results taken from patent US7098210B2, “2h-pyridazine-3-one derivatives, pharmaceutical compositions containing the same and a process for the preparation of the active ingredient” (Egis Gyógyszergyár Rt., priority 2001, dated 2006).

How the values were obtained:
[1] = system: male NMRI mice; test: Inhibition of apomorphine induced stereotypy on mouse; assay type: in vivo; settings: apomorphine hydrochloride subcutaneously 60 min after treatment
Procedure: (§1) 1.2 Inhibition of Apomorphine Stereotypy and Climbing on Mouse
(§2) Male NMRI mice of 20 to 24 g body weight were used in the experiments. The animals were treated with the carrier and the test substance (20 ml of volume/kg body weight), respectively, then 30 minutes later, for habituation, they were placed into wire screen cages of 12 cm×12 cm×12 cm size which could be covered by plexyglass plates. After 30 minutes, […] of apomorphine hydrochloride were administered to the mice in a volume of 10 ml/kg, subcutaneously. The measurement of the stereotyped behaviour was begun at once after the treatment with apomorphine and continued for 25 minutes. The measurement was performed by means of a scale having five grades: • 0 point: normal behaviour corresponding to that of the control animals. • 1 point: permanent exploration activity, smelling or moving the head sideways from time to time. • 2 points: intensive continuous head movement or smelling, periodical exploration activity. • 3 points: licking, biting or gnawing from time to time, alternating with intensive smelling or head movement, locomotor activity lasting for a very short time. • 4 points: continuous intensive licking and/or gnawing in the same place without any locomotor or exploration activity.
Evaluation of stereotypy: in case of each animal, the highest point value obtained during the observation was taken into consideration and recorded, respectively. From the maximum point value, median was calculated for each group which was related to the median of the control group to calculate the effect in percentage.
(§3) In this case again chlorpromazine and clozapine were used as the reference substance.

[2] = system: isolated right ventricular papillary muscle of the rabbit; test: Cardiotoxic effect: effective refractory period (ERP) in vitro; settings: for % change of ERP (1 μM): papillary muscle paced at 1 Hz, vs. baseline
Procedure: The cardiotoxic effect was determined in isolated right ventricular papillary muscle of the rabbit in vitro.
The modified method of Hackett et al., 1990 was used (Hacket, A. M., Mc Donald S. J., P., Schweingruber, F. and Gartwaite, S. M.: Simple in vitro method to characterize antiarrhythmic agents J. Pharmacol. Methods 23, 107–116, 1990).
The effective refractory period (ERP) was measured in isolated right ventricular papillary muscle of the rabbit in vitro.
The contractions of papillary muscle preparations obtained from New Zealand rabbits weighing 2.5–3.2 kg were evaluated. The contractions (isometrically paced at 1 Hz) were recorded by 4-channel Hugo Sachs apparatus. The effects of the test compounds or references were measured in 1 μM concentration.

[3] = system: male Wistar rats; test: Inhibition of conditioned avoiding response (CAR), shuttle-box; assay type: in vivo, rat; settings: compound given 1 hour before the series of experiment, 50% inhibition dose
Procedure: 1.1 Inhibition of Conditioned Avoiding Response (CAR)
The antipsychotic (neuroleptic) effect was measured by determining the inhibition of the learned conditioned avoiding reflex. At the beginning of teaching, male Wistar rats of 120 to 150 g body weight were used for the experiments. The experimental apparatus was the so called shuttle-box consisting of two rooms of 24 cm×24.5 cm×23 cm size separated from each other by a wall. The two rooms were connected by a gate of 6 cm×9 cm size. During the test, the task of the animals was to pass from one room to the other through the gate in case of a suitable warning stimulus, thus, avoiding the punishing (unconditioned) stimulus. The warning (conditioned) stimulus appeared in the room where the animal was staying. The conditioned stimulus (CS) was a gleaming (1 Hz) white light lasting for 15 seconds. The unconditioned stimulus (US) was a randomized electric shock to the sole with an intensity of 0.6 mA which appeared in the last 5 seconds of the conditioned stimulus. Passing from one room of the shuttle-box to the other during the conditioned stimulus was considered as avoiding response, while passing during the unconditioned stimulus was considered as escaping response. Both responses stopped the actual stimulus, and the trial was finished. The intertrial interval (ITI) was 15 seconds. 80 trials were performed on a day. The learning performance was measured as the ratio of the number of the successful avoiding responses to the total number of trials in percentage. The effect of the neuroleptics was determined on the animals showing a performance of at least 75% after the stabilization of the conditioned reflex. The test compounds were administered to the rats once weekly, 1 hour before the series of experiment. When evaluating the effect of the neuroleptics in each group, the performance of the animals on the day before was used as control. […] These values are given in Table I. Chlorpromazine [2-chloro-10-(3dimethylaminopropyl)phenothiazine] and clozapine [8-chloro-11-(4methyl-1-piperazinyl)-5H-dibenzo[b,e][1,4]diazepine] were used as the reference substance.

[4] = system: male Wistar rats; test: Cataleptogenous effect (method of Morpurgo); assay type: in vivo, rat; settings: for Ratio Cat/CAR (MED/ID50): catalepsy MED divided by CAR ID50; for MED in mg/kg po.: rats, minimum effective dosis inducing catalepsy
Description: The cataleptogenous effect was studied according to the method of Morpurgo [Morpurgo, C., Arch. Int. Pharmacodyn., 137, 84 ([…])]. Male Wistar rats of 220 to 240 g body weight have been used for the examinations. The fore-feet of the rats were placed on a gum stopper, one by one, and it was observed how the animal tolerated the unusual posture. The normal (non-cataleptic) animal removes the foot from the stopper during the measuring time of 10 seconds. If the animal keeps the foot on the stopper during the measuring time, this stiff state accompanied by myotonia is evaluated as catalepsy.

[5] = system: male NMRI mice; test: Inhibition of apomorphine induced climbing on mouse; assay type: in vivo; settings: 1 h, po., apomorphine hydrochloride subcutaneously 60 min after treatment
Procedure: as §1, §2
The posture when the mouse climbed up on the vertical wall with at least three legs was considered as climbing. The evaluation was performed in the last ten minutes of the observation on the basis yes/no (+/−).
The frequency was calculated in each group, then the effect was determined in percentage considering the result obtained for the control group as 100%.
as §3

[6] = system: mice; test: Inhibition of hypermotility induced by phencyclidine (PCP); assay type: in vivo; settings: Mus musculus, 1 h, sc., 3 mg/kg phencyclidine intraperitoneally 60 minutes after treatment, read-out: ID50 in mg/kg sc.

melting point [°C]	Structure (SMILES)	Inhibition of stereotypy, ID50 in mg/kg po. [1] [mg/kg]	% change of ERP (1 μM) [2] [%]	Conditioned reflex, ID50 in mg/kg [3]	Ratio Cat/CAR (MED/ID50) [4]	MED in mg/kg po. [4] [mg/kg]	ED50 [5] [mg/kg]	ED50 [6] [mg/kg]	cardiotoxic effect (significant prolongation of ERP) ([2]; 1 μM concentration)
200 to 202	Cn1ncc(NCCCN2CCC(c3noc4cc(F)ccc34)CC2)c(Cl)c1=O [Example 5, 4-chloro-5-{3-[4-(6-fluoro-1,2-benzisoxazole-3-yl)piperidine-1-yl]propyl-amino}-2-methyl-2H-pyridazine-3-one]	2.0	5.3 ± 0.4	≦3.0 mg/kg	>3	10	0.6	0.46	
163 to 165	Cn1ncc(NCCCN2CCC(c3noc4cc(F)ccc34)CC2)cc1=O [Example 7, 5-{3-[4-(6-fluoro-1,2-benzisoxazole-3-yl)piperidine-1-yl]propyl-amino}-2-methyl-2H-pyridazine-3-one]					~30		0.4	
	O=C(CCCN1CCC(O)(c2ccc(Cl)cc2)CC1)c1ccc(F)cc1 [haloperidol, 4-(4-chlorophenyl-4-hydroxy-1-piperidinyl)-1-(4-fluorophenyl)-1-butanone, reference compound]					1		1.2	
	CN1CCN(C2=Nc3cc(Cl)ccc3Nc3ccccc32)CC1 [clozapine, 8-chloro-11-(4methyl-1-piperazinyl)-5H-dibenzo[b,e][1,4]diazepine, reference compound]	35.4		21.3 mg/kg			11.8	2.9	
	COc1cc(C(C)=O)ccc1OCCCN1CCC(c2noc3cc(F)ccc23)CC1 [Iloperidone, reference compound]		31.9 ± 7.8						considerable and significant cardiotoxic potential
117 to 119	Cn1ncc(Cl)c(NCCCN2CCC(c3noc4cc(F)ccc34)CC2)c1=O [Example 2, 4-{3-[4-(6-fluoro-1,2-benzisoxazole-3-yl)piperidine-1-yl]propyl-amino}-5-chloro-2-methyl-2H-pyridazine-3-one]	2.0		5.8 mg/kg			0.6		
	Cn1ncc(NCCN2CCC(c3noc4cc(F)ccc34)CC2)c(Cl)c1=O [Example 4, 4-chloro-5-{2-[4-(6-fluoro-1,2-benzisoxazole-3-yl)piperidine-1-yl]ethyl-amino}-2-methyl-2H-pyridazine-3-one]	0.2	11.1 ± 1.7	0.3 to 0.5 mg/kg	about 6	3	0.06	0.07	
108 to 109	Cn1ncc(Cl)c(NCCN2CCC(c3noc4cc(F)ccc34)CC2)c1=O [Example 1, 4-{2-[4-(6-fluoro-1,2-benzisoxazole-3-yl)piperidine-1-yl]ethyl-amino}-5-chloro-2-methyl-2H-pyridazine-3-one]	0.4		0.7 mg/kg			0.3	0.4	
198 to 200	O=c1[nH]ncc(Cl)c1NCCCN1CCC(c2noc3cc(F)ccc23)CC1 [Example 3, 4-{3-[4-(6-fluoro-1,2-benzisoxazole-3-yl)piperidine-1-yl]propyl-amino}-5-chloro-2H-pyridazine-3-one]	1.2					0.8		
200 to 202	Cn1ncc(NCCN2CCC(c3noc4cc(F)ccc34)CC2)cc1=O [Example 6, 5-{2-[4-(6-fluoro-1,2-benzisoxazole-3-yl)piperidine-1-yl]ethyl-amino}-2-methyl-2H-pyridazine-3-one]		6.1 ± 1.9			>30		0.9	
97 to 99	O=c1cc(NCCN2CCC(c3noc4cc(F)ccc34)CC2)cn[nH]1 [Example 9, 5-{2-[4-(6-fluoro-1,2-benzisoxazole-3-yl)piperidine-1-yl]ethyl-amino}-2H-pyridazine-3-one]		0.4 ± 1.1			>10		1.4	
	CN(C)CCCN1c2ccccc2Sc2ccc(Cl)cc21 [chlorpromazine, 2-chloro-10-(3dimethylaminopropyl)phenothiazine, reference compound]	6.8		13.2 mg/kg			6.1		
229 to 231	O=c1[nH]ncc(NCCN2CCC(c3noc4cc(F)ccc34)CC2)c1Cl [Example 8, 5-{2-[4-(6-fluoro-1,2-benzisoxazole-3-yl)piperidine-1-yl]ethyl-amino}-4-chloro-2H-pyridazine-3-one]		1.5 ± 1.5			~10		0.2	
